{
  "source": "paper PMC11222350",
  "about": "“Preclinical evaluation of [^18F]FP-CIT, the radiotracer targeting dopamine transporter for diagnosing Parkinson’s disease: pharmacokinetic and efficacy analysis” (EJNMMI Research, 2024)",
  "assay": "Biodistribution and pharmacokinetic constants of [^18F]FP-CIT in normal mice",
  "type": "in vivo, C57BL/6 mice",
  "conditions": "for AUC / CL / Cmax / T1/2 / Tmax: normal mice (group I), 3.7 MBq i.v.",
  "description": "Male C57BL/6 mice (group I) were anesthetized with 2% isoflurane in oxygen, and 3.7 MBq of [^18F]FP-CIT was intravenously injected via the tail vein. Mice were sacrificed at different time points (1, 5, 10, 30, 60, and 120 min after injection, n = 4 each), and the tissues of interest (blood, muscle, heart, lung, liver, spleen, stomach, intestine, kidney, bone, cerebellum, striatum, and remaining brain tissues) were harvested, weighed, and measured for radioactivity using a gamma counter (Wizard 1480; PerkinElmer, Waltham, MA, USA). The uptake in each tissue sample was expressed as a percentage of the injected dose per gram (%ID/g). The pharmacokinetic constants of [^18F]FP-CIT in normal C57BL/6 mice were calculated from the %ID/g results of its biodistribution.",
  "key": {"[1]": {"conditions": "1 min post-injection (highest uptake), normal mice"}},
  "data": [
    {"smiles": "COC(=O)[C@H]1[C@@H](c2ccc(I)cc2)C[C@@H]2CC[C@H]1N2CCCF", "note": "[[^18F]FP-CIT, N-(3-fluoropropyl)-2β-carboxymethoxy-3β-(4-iodophenyl) nortropane]", "values": [
      {"measurement": "uptake in cerebellum", "setting": "[1]", "result": "21.42 ± 12.19", "unit": "%ID/g"},
      {"measurement": "uptake in striatum", "setting": "[1]", "result": "23.50 ± 12.46", "unit": "%ID/g"},
      {"measurement": "uptake in the rest of the brain", "setting": "[1]", "result": "20.06 ± 12.12", "unit": "%ID/g"},
      {"measurement": "uptake in the liver", "setting": "60 min after injection (highest uptake), normal mice", "result": "30.82 ± 1.64", "unit": "%ID/g"},
      {"measurement": "AUC", "setting": "blood", "result": "95.43 ± 4.34", "unit": "%ID*min/g"},
      {"measurement": "CL", "setting": "blood", "result": "1.05 ± 0.05", "unit": "cc/min"},
      {"measurement": "Cmax", "setting": "blood", "result": "2.68 ± 0.12", "unit": "%ID/g"},
      {"measurement": "T1/2", "setting": "blood", "result": "11.12 ± 1.83", "unit": "min"},
      {"measurement": "Tmax", "setting": "blood", "result": "1.00 ± 0.00", "unit": "min"},
      {"measurement": "AUC", "setting": "bone", "result": "636.73 ± 25.74", "unit": "%ID*min/g"},
      {"measurement": "CL", "setting": "bone", "result": "0.16 ± 0.01", "unit": "cc/min"},
      {"measurement": "Cmax", "setting": "bone", "result": "9.55 ± 1.48", "unit": "%ID/g"},
      {"measurement": "T1/2", "setting": "bone", "result": "114.55 ± 23.62", "unit": "min"},
      {"measurement": "Tmax", "setting": "bone", "result": "120.00 ± 0.00", "unit": "min"},
      {"measurement": "time of maximum concentration", "setting": "brain, normal mice", "result": 1, "unit": "min"},
      {"measurement": "AUC", "setting": "cerebellum", "result": "174.48 ± 20.00", "unit": "%ID*min/g"},
      {"measurement": "CL", "setting": "cerebellum", "result": "0.58 ± 0.07", "unit": "cc/min"},
      {"measurement": "Cmax", "setting": "cerebellum", "result": "10.97 ± 9.59", "unit": "%ID/g"},
      {"measurement": "T1/2", "setting": "cerebellum", "result": "17.30 ± 17.89", "unit": "min"},
      {"measurement": "Tmax", "setting": "cerebellum", "result": "1.00 ± 0.00", "unit": "min"},
      {"measurement": "AUC", "setting": "heart", "result": "180.65 ± 13.75", "unit": "%ID*min/g"},
      {"measurement": "CL", "setting": "heart", "result": "0.56 ± 0.04", "unit": "cc/min"},
      {"measurement": "Cmax", "setting": "heart", "result": "7.71 ± 0.74", "unit": "%ID/g"},
      {"measurement": "T1/2", "setting": "heart", "result": "62.29 ± 4.86", "unit": "min"},
      {"measurement": "Tmax", "setting": "heart", "result": "1.00 ± 0.00", "unit": "min"},
      {"measurement": "AUC", "setting": "intestine", "result": "614.35 ± 28.65", "unit": "%ID*min/g"},
      {"measurement": "CL", "setting": "intestine", "result": "0.16 ± 0.01", "unit": "cc/min"},
      {"measurement": "Cmax", "setting": "intestine", "result": "6.00 ± 0.47", "unit": "%ID/g"},
      {"measurement": "T1/2", "setting": "intestine", "result": "497.98 ± 350.19", "unit": "min"},
      {"measurement": "Tmax", "setting": "intestine", "result": "19.00 ± 27.58", "unit": "min"},
      {"measurement": "AUC", "setting": "kidney", "result": "680.50 ± 45.28", "unit": "%ID*min/g"},
      {"measurement": "CL", "setting": "kidney", "result": "0.15 ± 0.01", "unit": "cc/min"},
      {"measurement": "Cmax", "setting": "kidney", "result": "31.96 ± 5.10", "unit": "%ID/g"},
      {"measurement": "T1/2", "setting": "kidney", "result": "89.82 ± 11.39", "unit": "min"},
      {"measurement": "Tmax", "setting": "kidney", "result": "1.00 ± 0.00", "unit": "min"},
      {"measurement": "AUC", "setting": "liver", "result": "3095.50 ± 181.39", "unit": "%ID*min/g"},
      {"measurement": "CL", "setting": "liver", "result": "0.03 ± 0.00", "unit": "cc/min"},
      {"measurement": "T1/2", "setting": "liver", "result": "26.50 ± 4.4", "unit": "min"},
      {"measurement": "Tmax", "setting": "liver", "result": "4.00 ± 2.00", "unit": "min"},
      {"measurement": "AUC", "setting": "lung", "result": "408.70 ± 65.06", "unit": "%ID*min/g"},
      {"measurement": "CL", "setting": "lung", "result": "0.25 ± 0.04", "unit": "cc/min"},
      {"measurement": "Cmax", "setting": "lung", "result": "21.31 ± 3.18", "unit": "%ID/g"},
      {"measurement": "T1/2", "setting": "lung", "result": "79.46 ± 10.66", "unit": "min"},
      {"measurement": "Tmax", "setting": "lung", "result": "1.00 ± 0.00", "unit": "min"},
      {"measurement": "uptake in the intestine", "setting": "maintained for 120 min after injection, normal mice", "result": "approximately 5 %ID/g"},
      {"measurement": "AUC", "setting": "muscle", "result": "150.08 ± 13.03", "unit": "%ID*min/g"},
      {"measurement": "CL", "setting": "muscle", "result": "0.67 ± 0.06", "unit": "cc/min"},
      {"measurement": "Cmax", "setting": "muscle", "result": "2.42 ± 0.98", "unit": "%ID/g"},
      {"measurement": "T1/2", "setting": "muscle", "result": "137.84 ± 198.01", "unit": "min"},
      {"measurement": "Tmax", "setting": "muscle", "result": "5.00 ± 0.00", "unit": "min"},
      {"measurement": "AUC", "setting": "rest of the brain", "result": "244.03 ± 34.63", "unit": "%ID*min/g"},
      {"measurement": "CL", "setting": "rest of the brain", "result": "0.42 ± 0.06", "unit": "cc/min"},
      {"measurement": "Cmax", "setting": "rest of the brain", "result": "17.19 ± 16.17", "unit": "%ID/g"},
      {"measurement": "T1/2", "setting": "rest of the brain", "result": "55.64 ± 29.71", "unit": "min"},
      {"measurement": "Tmax", "setting": "rest of the brain", "result": "1.00 ± 0.00", "unit": "min"},
      {"measurement": "AUC", "setting": "spleen", "result": "288.90 ± 39.35", "unit": "%ID*min/g"},
      {"measurement": "CL", "setting": "spleen", "result": "0.35 ± 0.05", "unit": "cc/min"},
      {"measurement": "Cmax", "setting": "spleen", "result": "14.52 ± 1.35", "unit": "%ID/g"},
      {"measurement": "T1/2", "setting": "spleen", "result": "81.36 ± 16.91", "unit": "min"},
      {"measurement": "Tmax", "setting": "spleen", "result": "3.00 ± 2.31", "unit": "min"},
      {"measurement": "AUC", "setting": "stomach", "result": "444.70 ± 47.17", "unit": "%ID*min/g"},
      {"measurement": "CL", "setting": "stomach", "result": "0.23 ± 0.02", "unit": "cc/min"},
      {"measurement": "Cmax", "setting": "stomach", "result": "7.14 ± 1.99", "unit": "%ID/g"},
      {"measurement": "T1/2", "setting": "stomach", "result": "177.39 ± 36.93", "unit": "min"},
      {"measurement": "Tmax", "setting": "stomach", "result": "7.50 ± 2.89", "unit": "min"},
      {"measurement": "AUC", "setting": "striatum", "result": "223.30 ± 37.82", "unit": "%ID*min/g"},
      {"measurement": "CL", "setting": "striatum", "result": "0.46 ± 0.08", "unit": "cc/min"},
      {"measurement": "T1/2", "setting": "striatum", "result": "39.62 ± 18.71", "unit": "min"},
      {"measurement": "Tmax", "setting": "striatum", "result": "1.00 ± 0.00", "unit": "min"}
    ]}
  ]
}
